Data from the supplement of paper PMC10307832.

Key:
Assay in all cases: relative viability (nuclei count vs DMSO), 5 days (fraction); higher = more cells survive
IDH-C35 + OSI-027 = compound: Cc1ccccc1C(C(=O)NC1CCCCC1)N(C(=O)Cn1ccnc1C)c1cccc(F)c1 [IDH-C35] + COc1cccc2cc(-c3nc([C@H]4CC[C@H](C(=O)O)CC4)n4ncnc(N)c34)[nH]c12 [OSI-027] (partner 0.5 µM)
In short: (§1)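 Relative viability is defined as nuclei in treated wells over nuclei in vehicle wells. Duplicate plates were run and medians reported. Lung cancer cell lines in 1536-well plates were dosed by pin tool one day after seeding, with one drug or with a fixed anchor-drug dose plus five library-drug doses (not always all listed) in √10 steps, and nuclei were counted after 5 days.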

IDH-C35 + Vorinostat = compound: Cc1ccccc1C(C(=O)NC1CCCCC1)N(C(=O)Cn1ccnc1C)c1cccc(F)c1 [IDH-C35] + O=C(CCCCCCC(=O)Nc1ccccc1)NO [Vorinostat] (partner 1 µM)
In short: as §1

IDH-C35 + Linsitinib = compound: Cc1ccccc1C(C(=O)NC1CCCCC1)N(C(=O)Cn1ccnc1C)c1cccc(F)c1 [IDH-C35] + C[C@]1(O)C[C@@H](c2nc(-c3ccc4ccc(-c5ccccc5)nc4c3)c3c(N)nccn32)C1 [Linsitinib] (partner 1 µM)
In short: as §1

IDH-C35 + Alpelisib = compound: Cc1ccccc1C(C(=O)NC1CCCCC1)N(C(=O)Cn1ccnc1C)c1cccc(F)c1 [IDH-C35] + Cc1nc(NC(=O)N2CCC[C@H]2C(N)=O)sc1-c1ccnc(C(C)(C)C(F)(F)F)c1 [Alpelisib] (partner 2 µM)
In short: as §1

Cell Line	relative viability (IDH-C35 + OSI-027; first compound 0.08 µM)	relative viability (IDH-C35 + OSI-027; first compound 0.253 µM)	relative viability (IDH-C35 + OSI-027; first compound 0.8 µM)	relative viability (IDH-C35 + OSI-027; first compound 2.53 µM)	relative viability (IDH-C35 + OSI-027; first compound 8 µM)	relative viability (IDH-C35 + Vorinostat; first compound 0.08 µM)	relative viability (IDH-C35 + Vorinostat; first compound 0.253 µM)	relative viability (IDH-C35 + Vorinostat; first compound 0.8 µM)	relative viability (IDH-C35 + Vorinostat; first compound 2.53 µM)	relative viability (IDH-C35 + Vorinostat; first compound 8 µM)	relative viability (IDH-C35 + Linsitinib; first compound 0.08 µM)	relative viability (IDH-C35 + Linsitinib; first compound 0.253 µM)	relative viability (IDH-C35 + Linsitinib; first compound 0.8 µM)	relative viability (IDH-C35 + Linsitinib; first compound 2.53 µM)	relative viability (IDH-C35 + Linsitinib; first compound 8 µM)	relative viability (IDH-C35 + Alpelisib; first compound 0.08 µM)	relative viability (IDH-C35 + Alpelisib; first compound 0.253 µM)	relative viability (IDH-C35 + Alpelisib; first compound 0.8 µM)	relative viability (IDH-C35 + Alpelisib; first compound 2.53 µM)	relative viability (IDH-C35 + Alpelisib; first compound 8 µM)
LOU-NH91	0.742	0.76	0.743	0.716	0.732	0.916	0.946	0.894	0.8	0.888	0.944	0.998	0.968	0.927	0.973	0.746	0.774	0.712	0.711	0.706
NCI-H3122	1.03	1.04	0.929	0.917	0.948	1.01	0.947	0.793	0.773	1.08	0.991	0.971	0.972	1.01	1.02	0.904	0.739	0.729	0.78	0.849
HCC-827	0.78	0.662	0.694	0.71	0.771	0.731	0.85	0.811	0.789	0.868	0.99	0.889	0.98	0.837	1	0.917	0.897	1.04	1	0.75
SK-LU-1	0.377	0.336	0.347	0.357	0.326	0.733	0.752	0.892	0.831	0.778	0.999	1.03	1.07	1.22	1.1	0.993	0.918	1.29	1.11	0.934
NCI-H1975	0.64	0.71	0.778	0.741	0.763	0.73	0.726	0.701	0.716	0.649	0.854	0.937	0.93	0.92	0.878	0.55	0.636	0.712	0.658	0.654
NCI-H1651	0.7	0.686	0.746	0.644	0.703	0.539	0.592	0.531	0.513	0.543	0.918	0.925	0.966	1.02	0.903	1.03	0.812	0.937	0.945	1
